# Results from patent US8481732B2 (Incyte Corporation, priority 2009, dated 2013).
# Molecular target: T1, histamine H4 receptor (Homo sapiens, UniProt Q9H3N8)
# T1 construct: expressed in transfected cells; host or cells: HEK293SFM cells (membrane preparation)
# Assay: H4 Membrane Binding Assay (3H-Histamine displacement)
# Settings: membranes of recombinant HEK293SFM cells, 10 nM 3H-Histamine, 1.5 hr at room temperature
# Procedure: Recombinant HEK293SFM cells expressing human H1, H2, H3, H4 or mouse H4 were harvested (Packard Filtermate Harvester) in ice-cold Tris-HCl, (50 mM, pH 7.5, Sigma) with protease inhibitors (Roche) and homogenized with a Polytron homogenizer. The homogenate was centrifuged for 5 minutes at 1000 g to remove nuclei and unbroken cells. The supernatant was centrifuged at 50000 g for 30 minutes, and the resulting pellet was re-suspended in ice-cold Tris-HCl (50 mM, pH 7.5). […] Nonspecific binding was determined by inclusion of 1000× unlabeled ligands. The bound radioactivity was separated by filtration through polyethyleneimine-treated GF/B filters (Perkin Elmer). The filters were washed eight times with ice-cold Tris-HCl (50 mM, pH 7.5), and radioactivity retained on the filters was measured by liquid scintillation counting. The binding data were evaluated with Prism.
# T1 sequence (Q9H3N8 whole entry): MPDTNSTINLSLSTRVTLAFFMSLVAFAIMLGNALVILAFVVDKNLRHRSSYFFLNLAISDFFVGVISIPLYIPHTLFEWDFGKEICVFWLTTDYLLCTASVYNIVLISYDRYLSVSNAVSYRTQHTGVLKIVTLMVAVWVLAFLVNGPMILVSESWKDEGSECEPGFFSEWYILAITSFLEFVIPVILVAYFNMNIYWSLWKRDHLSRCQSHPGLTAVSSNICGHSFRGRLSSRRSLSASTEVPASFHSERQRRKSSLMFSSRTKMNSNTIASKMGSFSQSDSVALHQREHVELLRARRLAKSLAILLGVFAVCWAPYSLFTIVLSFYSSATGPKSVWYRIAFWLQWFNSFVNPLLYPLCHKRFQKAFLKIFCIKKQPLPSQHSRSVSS
row,Compound,IC50 [nM]
1,"CN1CCN(c2cc(-c3ccc4c(c3)CN(C(=O)N3CCC(F)(F)CC3)CC4)nc(N)n2)CC1 [Example 104, 4-{2-[(4,4-Difluoropiperidin-1-yl)carbonyl]-1,2,3,4-tetrahydroisoquinolin-7-yl}-6-(4-methylpiperazin-1-yl)pyrimidin-2-amine]",259
2,"CCOC(=O)c1cccnc1Oc1cccc(CNC(=O)c2ccc3c(N4CCN(C)CC4)nc(N)nc3c2)c1 [Example 184, Ethyl 2-{3-[({[2-amino-4-(4-methylpiperazin-1-yl)quinazolin-7-yl]carbonyl}amino)methyl]phenoxy}nicotinate]",43
3,"CN1CCN(c2cc(-c3ccc4c(c3)CN(C(=O)NC3CCC(C(=O)N(C)C)CC3)CC4)nc(N)n2)CC1 (stereo not drawn) [Example 54, 7-[2-Amino-6-(4-methylpiperazin-1-yl)pyrimidin-4-yl]-N-{4-[(dimethylamino)carbonyl]cyclohexyl}-3,4-dihydroisoquinoline-2(1H)-carboxamide]",439
4,"CC(C)[C@@H](C)NC(=O)N1CCc2ccc(-c3cc(N4CCN(C)CC4)nc(N)n3)cc2C1 [Example 98, 7-[2-Amino-6-(4-methylpiperazin-1-yl)pyrimidin-4-yl]-N-[(1R)-1,2-dimethylpropyl]-3,4-dihydroisoquinoline-2(1H)-carboxamide]",61
5,"CC(C)COC(=O)N1CCc2ccc(-c3cc(N4CCN(C)CC4)nc(N)n3)cc2C1 [Example 10, Isobutyl 7-[2-amino-6-(4-methylpiperazin-1-yl)pyrimidin-4-yl]-3,4-dihydroisoquinoline-2(1H)-carboxylate]",53.4
6,"COc1ccc(C#N)c(Oc2cccc(CNC(=O)c3ccc4c(N5CCN(C)CC5)nc(N)nc4c3)c2)c1 [Example 180, 2-Amino-N-[3-(2-cyano-5-methoxyphenoxy)benzyl]-4-(4-methylpiperazin-1-yl)quinazoline-7-carboxamide]",25
7,"CC(C(=O)N1CCc2ccc(-c3cc(N4CCN(C)CC4)nc(N)n3)cc2C1)C1CCCCC1 (stereo not drawn) [Example 102, 4-[2-(2-Cyclohexylpropanoyl)-1,2,3,4-tetrahydroisoquinolin-7-yl]-6-(4-methylpiperazin-1-yl)pyrimidin-2-amine]",83
8,"CN1CCN(c2cc(-c3ccc4c(c3)CN(C(=O)Nc3nc(-c5ccc(Cl)cc5)cs3)CC4)nc(N)n2)CC1 [Example 48, 7-[2-Amino-6-(4-methylpiperazin-1-yl)pyrimidin-4-yl]-N-[4-(4-chlorophenyl)-1,3-thiazol-2-yl]-3,4-dihydroisoquinoline-2(1H)-carboxamide]",99
9,"CC(C)OC(=O)N1CCc2ccc(-c3cc(N4CCN(C)CC4)nc(N)n3)cc2C1 [Example 11, Isopropyl 7-[2-amino-6-(4-methylpiperazin-1-yl)pyrimidin-4-yl]-3,4-dihydroisoquinoline-2(1H)-carboxylate]",43
10,"CN1CCN(c2nc(N)nc3cc(C(=O)N[C@@H](Cc4ccc(-c5ccccn5)cc4)C(=O)N(C)C)ccc23)CC1 [Example 160, 2-Amino-N-[(1S)-2-(dimethylamino)-2-oxo-1-(4-pyridin-2-ylbenzyl)ethyl]-4-(4-methylpiperazin-1-yl)quinazoline-7-carboxamide]",52
11,"CN1CCN(c2cc(-c3ccc4c(c3)CN(C(=O)N(C)C3CCCCC3)CC4)nc(N)n2)CC1 [Example 81, 7-[2-Amino-6-(4-methylpiperazin-1-yl)pyrimidin-4-yl]-N-cyclohexyl-N-methyl-3,4-dihydroisoquinoline-2(1H)-carboxamide]",163
12,"CO[C@H]1CC[C@H](NC(=O)N2CCc3ccc(-c4cc(N5CCN(C)CC5)nc(N)n4)cc3C2)CC1 [Example 56, 7-[2-Amino-6-(4-methylpiperazin-1-yl)pyrimidin-4-yl]-N-(trans-4-methoxycyclohexyl)-3,4-dihydroisoquinoline-2(1H)-carboxamide]",210
13,"CC(NC(=O)c1ccc2c(N3CCN(C)CC3)nc(N)nc2c1)c1cccc(OCc2cccc(C#N)c2)c1 (stereo not drawn) [Example 201, 2-Amino-N-(1-{3-[(3-cyanobenzyl)oxy]phenyl}ethyl)-4-(4-methylpiperazin-1-yl)quinazoline-7-carboxamide]",14
14,"CC(Cc1cc2ccccc2o1)NC(=O)c1ccc2c(N3CCN(C)CC3)nc(N)nc2c1 (stereo not drawn) [Example 141, 2-Amino-N-[2-(1-benzofuran-2-yl)-1-methylethyl]-4-(4-methylpiperazin-1-yl)quinazoline-7-carboxamide]",71
15,"CN1CCN(c2nc(N)nc3cc(C(=O)N4CCc5c(cccc5OCc5cccc(C#N)c5)C4)ccc23)CC1 [Example 207, 3((2-(2-Amino-4-(4-methylpiperazin-1-yl)quinazoline-7-carbonyl)-1,2,3,4-tetrahydroisoquinolin-5-yloxy)methyl)benzonitrile]",36
16,"CN1CCN(c2cc(-c3ccc4c(c3)CN(C(=O)CC(C#N)c3ccccc3)CC4)nc(N)n2)CC1 (stereo not drawn) [Example 124, 4-[7-[2-Amino-6-(4-methylpiperazin-1-yl)pyrimidin-4-yl]-3,4-dihydroisoquinolin-2(1H)-yl]-4-oxo-2-phenylbutanenitrile]",36
17,"C[C@H](NC(=O)c1ccc2c(N3CCN(C)CC3)nc(N)nc2c1)c1ccc2ccccc2c1 [Example 22, (S)-2-Amino-4-(4-methylpiperazin-1-yl)-N-(1-(naphthalen-2-yl)ethyl)quinazoline-7-carboxamide]",128
18,"CN1CCN(c2cc(-c3ccc4c(c3)CN(C(=O)Nc3nccs3)CC4)nc(N)n2)CC1 [Example 88, 7-[2-Amino-6-(4-methylpiperazin-1-yl)pyrimidin-4-yl]-N-1,3-thiazol-2-yl-3,4-dihydroisoquinoline-2(1H)-carboxamide]",135
19,"CN1CCN(c2cc(-c3ccc4c(c3)CN(C(=O)Cc3cncc(C#N)c3)CC4)nc(N)n2)CC1 [Example 125, 5-{2-[7-[2-Amino-6-(4-methylpiperazin-1-yl)pyrimidin-4-yl]-3,4-dihydroisoquinolin-2(1H)-yl]-2-oxoethyl}nicotinonitrile]",92
20,"CN1CCN(c2cc(-c3ccc4c(c3)CN(C(=O)N[C@@H]3CCOC3)CC4)nc(N)n2)CC1 [Example 84, 7-[2-Amino-6-(4-methylpiperazin-1-yl)pyrimidin-4-yl]-N-[(3R)-tetrahydrofuran-3-yl]-3,4-dihydroisoquinoline-2(1H)-carboxamide]",744
21,"COc1cccc(-c2ccc(C[C@H](NC(=O)c3ccc4c(N5CCN(C)CC5)nc(N)nc4c3)C(=O)N(C)C)cc2)n1 [Example 153, 2-Amino-N-{(1S)-2-(dimethylamino)-1-[4-(6-methoxypyridin-2-yl)benzyl]-2-oxoethyl}-4-(4-methylpiperazin-1-yl)quinazoline-7-carboxamide]",19
22,"CN1CCN(c2cc(-c3ccc4c(c3)CN(C(=O)NC3CCCC3)CC4)nc(N)n2)CC1 [Example 5, 7-[2-Amino-6-(4-methylpiperazin-1-yl)pyrimidin-4-yl]-N-cyclopentyl-3,4-dihydroisoquinoline-2(1H)-carboxamide]",20.8
23,"CN1CCN(c2cc(-c3ccc4c(c3)CN(C(=O)c3cccc(Cl)c3)CC4)nc(N)n2)CC1 [Example 39, 4-[2-(3-Chlorobenzoyl)-1,2,3,4-tetrahydroisoquinolin-7-yl]-6-(4-methylpiperazin-1-yl)pyrimidin-2-amine]",186
24,"CN1CCN(c2nc(N)nc3cc(C(=O)NC(Cc4ccc(C(F)(F)F)cc4)C(=O)N(C)C)ccc23)CC1 (stereo not drawn) [Example 150, 2-Amino-N-{2-(dimethylamino)-2-oxo-1-[4-(trifluoromethyl)benzyl]ethyl}-4-(4-methylpiperazin-1-yl)quinazoline-7-carboxamide]",44
25,"CN1CCN(c2cc(-c3ccc4c(c3)CN(C(=O)NC3CCCc5ccccc53)CC4)nc(N)n2)CC1 (stereo not drawn) [Example 83, 7-[2-Amino-6-(4-methylpiperazin-1-yl)pyrimidin-4-yl]-N-(1,2,3,4-tetrahydronaphthalen-1-yl)-3,4-dihydroisoquinoline-2(1H)-carboxamide]",38
26,"CN1CCN(c2nc(N)nc3cc(C(=O)NC(Cc4nc5ccccc5s4)C(=O)N(C)C)ccc23)CC1 (stereo not drawn) [Example 144, 2-Amino-N-[1-(1,3-benzothiazol-2-ylmethyl)-2-(dimethylamino)-2-oxoethyl]-4-(4-methylpiperazin-1-yl)quinazoline-7-carboxamide]",190
27,"CN1CCN(c2cc(-c3ccc4c(c3)CN(C(=O)NC35CC6CC(CC(C6)C3)C5)CC4)nc(N)n2)CC1 [Example 59, N-1-Adamantyl-7-[2-amino-6-(4-methylpiperazin-1-yl)pyrimidin-4-yl]-3,4-dihydroisoquinoline-2(1H)-carboxamide]",19
28,"CN1CCN(c2cc(-c3ccc4c(c3)CN(C(=O)Cc3ccc(N5CCCC5)nc3)CC4)nc(N)n2)CC1 [Example 128, 4-(4-Methylpiperazin-1-yl)-6-{2-[(6-pyrrolidin-1-ylpyridin-3-yl)acetyl]-1,2,3,4-tetrahydroisoquinolin-7-yl}pyrimidin-2-amine]",45
29,"CN1CCN(c2cc(-c3ccc4c(c3)CN(C(=O)NCc3ccccc3)CC4)nc(N)n2)CC1 [Example 80, 7-[2-Amino-6-(4-methylpiperazin-1-yl)pyrimidin-4-yl]-N-benzyl-3,4-dihydroisoquinoline-2(1H)-carboxamide]",232
30,"CN1CCN(c2nc(N)nc3cc(C(=O)NCCCc4ccccc4)ccc23)CC1 [Example 38, 2-Amino-4-(4-methylpiperazin-1-yl)-N-(3-phenylpropyl)quinazoline-7-carboxamide]",106
